Among the data in patent publication US10131664B2 (Celgene Quanticel Research, Inc., priority 2013, dated 2018) are IC50 values, retold here.

SMILES strings stand for the structures. Where a name gives a salt, the structure may show the parent alone. Read-outs that look alike come from different tables or passages of the source.

Test [1] has as its target full-length human LSD1 (Homo sapiens (Human), UniProt O60341). Put plainly: In vitro enzyme inhibition assay LSD-1 (TR-FRET). The format is biochemical. The conditions noted are these: TR-FRET, 0.1 nM LSD1, 50 nM H3K4me1-biotin peptide, 2 μM FAD, pH7.3; read-out: LSD1 IC50. The protocol:
This assay determines the ability of a test compound to inhibit LSD1 demethylase activity.
The enzymatic assay of LSD1 activity is based on Time Resolved-Fluorescence Resonance Energy Transfer (TR-FRET) detection.
The ability of the compounds disclosed herein to inhibit LSD1 activity was quantified and the respective IC50 value was determined. Table 5 provides the IC50 values of various substituted heterocyclic compounds disclosed herein.
For orientation: TR-FRET usually uses a lanthanide donor and a delayed reading to cut background.

Test [2] has as its system THP-1 (AML) cells. The experiment in a line: LSD1 CD11b cellular assay (flow cytometry). It counts as cell-based. The following applies: Homo sapiens, read-out: Cellular IC50. The method, then:
To analyze LSD1 inhibitor efficacy in cells, a CD11b flow cytometry assay was performed. LSD1 inhibition induces CD11b expression in THP-1 (AML) cells which can be measured by flow cytometry. […] LSD1 test compounds were serially diluted in DMSO. The dilutions were added to each well accordingly to a final concentration of 0.2% DMSO. The cells were incubated at 37° C. in 5% CO2 for 4 days. 250 μL of each well was transferred to a well in a 96 well round bottom plate. The plate was centrifuged at 1200 rpm at 4 degrees Celsius in a Beckman Coulter Alegra 6KR centrifuge for 5 min. The media was removed leaving the cells at the bottom of the wells. The cells were washed in 100 μL cold HBSS (Hank's Balanced Salt Solution) plus 2% BSA (Bovine Serum Albumin) solution and centrifuged at 1200 rpm at 4° C. for 5 min. The wash was removed. […] The cells were centrifuged and washed two times in 100 μl HBSS plus 2% BSA. After the final spin the cells were resuspended in 100 μL HBSS plus 2% BSA containing 1 μg/mL DAPI (4′,6-diamidino-2-phenylindole). The cells were then analyzed by flow cytometry in a BD FACSAria machine. Cells were analyzed for CD11b expression. The percent of CD11b expressing cells for each inhibitor concentration was used to determine an IC50 curve for each compound analyzed.
On the technique in general: Flow cytometry measures light scatter and fluorescence of single cells or particles in a stream.

[3] abbreviates: 96 h, CD11b expression in THP-1 (AML) cells, flow cytometry, 4 days incubation.

As for `N#Cc1ccc(-c2nc(NC[C@H]3CCNC3)ncc2-c2ccc(C(F)(F)F)cc2)cc1` [Example 25, 4-(2-{[(3S)-pyrrolidin-3-ylmethyl]amino}-5-[4-(trifluoromethyl)phenyl]pyrimidin-4-yl)benzonitrile], the IC50 in test [1] was under 100 nM; in test [2] (setting [3]), 100 to 1000 nM.
Turning to `N#Cc1ccc(-c2nc(NC[C@H]3CCNC3)ncc2C#CC2CC2)cc1` [Example 26, 4-[5-(2-cyclopropylethynyl)-2-{[(3S)-pyrrolidin-3-ylmethyl]amino}pyrimidin-4-yl]benzonitrile], the IC50 in test [1] is under 100 nM; in test [2] (setting [3]), 100 to 1000 nM.
As for `Cc1ccc(-c2cnc(N[C@@H]3C[C@H]4CNC[C@H]4C3)nc2-c2ccc(C#N)cc2)cc1` [Example 27, 4-(2-{[(3aR,5S,6aS)-octahydrocyclopenta[c]pyrrol-5-yl]amino}-5-(4-methylphenyl)pyrimidin-4-yl)benzonitrile], the IC50 in test [1] and in test [2] (setting [3]) was 100 to 1000 nM throughout.
As to `Cc1ccc(-c2cc(NCC3CCNC3)nn2-c2ccc(C#N)cc2)cc1` (stereo not drawn) [Example 43, 4-[5-(4-methylphenyl)-3-(pyrrolidin-3-ylmethylamino)pyrazol-1-yl]benzonitrile], the IC50 in test [1] and in test [2] (setting [3]) was under 100 nM in each case.
For `Cc1ccc(-c2cc(NC[C@H]3CCNC3)nn2-c2ccc(C#N)cc2)cc1` [Example 44, 4-[5-(4-methylphenyl)-3-[[(3S)-pyrrolidin-3-yl]methylamino]pyrazol-1-yl]benzonitrile], the IC50 in test [1] is under 100 nM; in test [2] (setting [3]), 100 to 1000 nM.
Regarding `Cc1ccc(-c2cc(NC[C@@H]3CCNC3)nn2-c2ccc(C#N)cc2)cc1` [Example 45, 4-[5-(4-methylphenyl)-3-[[(3R)-pyrrolidin-3-yl]methylamino]pyrazol-1-yl]benzonitrile], the IC50 in test [1] is under 100 nM; in test [2] (setting [3]), 100 to 1000 nM.
Consider `Cc1ccc(-c2cc(NCC3CCNCC3)nn2-c2ccc(C#N)cc2)cc1` [Example 46, 4-[5-(4-methylphenyl)-3-(piperidin-4-ylmethylamino)pyrazol-1-yl]benzonitrile], for which the IC50 in test [1] is under 100 nM; in test [2] (setting [3]), 100 to 1000 nM.
In the same order, the values of `Cc1ccc(-c2cc(NC[C@H]3[C@@H]4CNC[C@@H]43)nn2-c2ccc(C#N)cc2)cc1` [Example 47, 4-[3-[[(1S,5R)-3-azabicyclo[3.1.0]hexan-6-yl]methylamino]-5-(4-methylphenyl)pyrazol-1-yl]benzonitrile] are under 100 nM and 100 to 1000 nM.
`COc1ccc(-c2nc3ccn(C[C@@H]4CCNC4)c3cc2-c2ccc(C#N)cc2)cc1` [Example 49, 4-{1-[((3R)pyrrolidin-3-yl)methyl]-5-(4-methoxyphenyl)pyrrolo[3,2-b]pyridin-6-yl}benzenecarbonitrile, HCl salt]: the IC50 in test [1] and in test [2] (setting [3]) was under 100 nM each time.
On to `COc1ccc(-c2nc3ccn(C[C@@H]4CCNC4)c3cc2-c2ccc(C#N)cc2)cc1F` [Example 50, 4-{1-[((3R)pyrrolidin-3-yl)methyl]-5-(3-fluoro-4-methoxyphenyl)pyrrolo[3,2-b]pyridin-6-yl}benzenecarbonitrile, HCl salt], for which the IC50 in test [1] and in test [2] (setting [3]) was under 100 nM in each case.
Consider `COc1ccc(-c2nc3ccn(C[C@H]4CCNC4)c3cc2-c2ccc(C#N)cc2)cc1F` [Example 51, 4-{1-[((3S)pyrrolidin-3-y])methyl]-5-(3-fluoro-4-methoxyphenyl)pyrrolo[3,2-b]pyridin-6-yl}benzenecarbonitrile, HCl salt], for which the IC50 in test [1] and in test [2] (setting [3]) was under 100 nM in each case.
Turning to `COc1ccc(-c2nc3ccn(C[C@@H]4CCNC4)c3cc2-c2ccc(C#N)c(F)c2)cc1` [Example 52, HCl salt], the IC50 is under 100 nM in test [1] and under 100 nM in test [2] (THP-1, 96 h).
As to `COc1ccc(-c2nc3ccn(C[C@@H]4CCNC4)c3cc2-c2ccc(C#N)c(F)c2)cc1F` [Example 53, 4-{1-[((3R)pyrrolidin-3-yl)methyl]-5-(3-fluoro-4-methoxyphenyl)pyrrolo[3,2-b]pyridin-6-yl}-2-fluorobenzenecarbonitrile HCl salt], the IC50 in test [1] and in test [2] (setting [3]) was under 100 nM throughout.
For the molecule `COc1ccc(-c2nc3ccn(C[C@H]4CCNC4)c3cc2-c2ccc(C#N)c(F)c2)cc1` [Example 54], the 50% inhibitory concentration (IC50) in test [1] and in test [2] (setting [3]) was under 100 nM each time.
As for `N#Cc1ccc(-n2nc(C(=O)N3CCC[C@@H](N)C3)cc2OCc2cccnc2)cc1` [Example 57, 4-{3-[((3R)-3-Aminopiperidyl)carbonyl]-5-(3-pyridylmethoxy)pyrazolyl}benzenecarbonitrile], the IC50 in test [1] is under 100 nM; in test [2] (setting [3]) it was 100 to 1000 nM.
In the same order, the values of `N#Cc1ccc(-n2nc(C(=O)N3CCC[C@@H](N)C3)cc2OCc2ccncc2)cc1` [Example 58, 4-{3-[((3R)-3-aminopiperidyl)carbonyl]-5-(4-pyridylmethoxy)pyrazolyl}benzenecarbonitrile] are under 100 nM and 1000 to 10000 nM.
For the molecule `Cn1cc2cc(-c3cnc(N4CCC(N)CC4)nc3-c3ccc(C#N)c(F)c3)ccc2n1` [Example 59, 4-[2-(4-aminopiperidin-1-yl)-5-(2-methylindazol-5-yl)pyrimidin-4-yl]-2-fluorobenzonitrile], the IC50 in test [1] and in test [2] (setting [3]) was under 100 nM each time.
Regarding `N#Cc1ccc(-c2nc(N3CCC(N)CC3)ncc2-c2cnn(CC(F)(F)F)c2)cc1` [Example 61, 4-[2-(4-aminopiperidin-1-yl)-5-[1-(2,2,2-trifluoroethyl)pyrazol-4-yl]pyrimidin-4-yl]benzonitrile], the IC50 in test [1] and in test [2] (setting [3]) was under 100 nM in each case.
Consider `N#Cc1ccc(-c2nc(N3CCC4(CCNC4)CC3)ncc2-c2cnn(CC(F)(F)F)c2)cc1` [Example 62, 4-[2-(2,8-diazaspiro[4.5]decan-8-yl)-5-[1-(2,2,2-trifluoroethyl)pyrazol-4-yl]pyrimidin-4-yl]benzonitrile], for which the IC50 in test [1] and in test [2] (setting [3]) was under 100 nM each time.
With `N#Cc1ccc(-c2nc(N3CCC4NCCC4C3)ncc2-c2cnn(CC(F)(F)F)c2)cc1` (stereo not drawn) [Example 63, 4-[2-{1,2,3,3a,4,6,7,7a-octahydropyrrolo[3,2-c]pyridin-5-yl)-5-[1-(2,2,2-trifluoroethyl)pyrazol-4-yl]pyrimidin-4-yl]benzonitrile], the IC50 was under 100 nM in test [1] and 100 to 1000 nM in test [2] (setting [3]).
Regarding `Cn1ncc2cc(-c3cnc(N4CCC(N)CC4)nc3-c3ccc(C#N)cc3)cnc21` [Example 64, 4-[2-(4-aminopiperidin-1-yl)-5-(1-methylpyrazolo[3,4-b]pyridin-5-yl)pyrimidin-4-yl]benzonitrile], the IC50 in test [1] and in test [2] (setting [3]) was under 100 nM throughout.
Consider `Cn1ncc2cc(-c3cnc(N4CCC5CNCC5CC4)nc3-c3ccc(C#N)cc3)cnc21` (stereo not drawn) [Example 65, 4-[2-(2,3,3a,4,5,7,8,8a-octahydro-1H-pyrrolo[3,4-d]azepin-6-yl)-5-(1-methylpyrazolo[3,4-b]pyridin-5-yl)pyrimidin-4-yl]benzonitrile], for which the IC50 in test [1] and in test [2] (setting [3]) was under 100 nM throughout.
Turning to `Cn1cnc2cc(-c3cnc(N4CCC(N)CC4)nc3-c3ccc(C#N)cc3)cnc21` [Example 66, 4-[2-(4-aminopiperidin-1-yl)-5-(3-methylimidazo[4,5-b]pyridin-6-yl)pyrimidin-4-yl]benzonitrile], the IC50 in test [1] and in test [2] (setting [3]) was under 100 nM each time.
`Cn1ncc2nc(-c3cnc(N4CCC(N)CC4)nc3-c3ccc(C#N)cc3)ccc21` [Example 67, 4-[2-(4-aminopiperidin-1-yl)-5-(1-methylpyrazolo[4,3-b]pyridin-5-yl)pyrimidin-4-yl]benzonitrile]: the results for the IC50 in test [1] and in test [2] (setting [3]) were under 100 nM and 100 to 1000 nM, respectively.
Regarding `Cn1ncc2cc(-c3cnc(N4CCC(N)CC4)nc3-c3ccc(C#N)cc3)ncc21` [Example 69, 4-[2-(4-aminopiperidin-1-yl)-5-(1-methylpyrazolo[3,4-c]pyridin-5-yl)pyrimidin-4-yl]benzonitrile], the IC50 in test [1] was under 100 nM; in test [2] (setting [3]), 100 to 1000 nM.
As to `N#Cc1ccc(-c2nc(N3CCC(N)CC3)ncc2C#CC2(O)CCCC2)cc1` [Example 70, 4-{2-(4-aminopiperidin-1-yl)-5-[2-(1-hydroxycyclopentyl)ethynyl]pyrimidin-4-yl]benzonitrile], the IC50 in test [1] and in test [2] (setting [3]) was under 100 nM each time.
`N#Cc1ccc(-c2nc(N3CCC(N)CC3)ncc2-c2cnn(C3CCOC3)c2)cc1` (stereo not drawn) [Example 71, 4-[2-(4-aminopiperidin-1-yl)-5-[1-(oxolan-3-yl)pyrazol-4-yl]pyrimidin-4-yl]benzonitrile]: the IC50 is under 100 nM in test [1] and 100 to 1000 nM in test [2] (setting [3]).

By IC50 is commonly meant the concentration that gives 50% inhibition.
